Reference: ChEMBL document CHEMBL1144367, “QSAR for anti-RNA-virus activity, synthesis, and assay of anti-RSV carbonucleosides given a unified representation of spectral moments, quadratic, and topologic indices” (2005)
Values after ≈ are worked out from the molar mass of the structure shown.

Legend:
Type in all cases: functional
Conditions in all cases: Homo sapiens
HeLa [1] = experiment: Minimum inhibitory concentration against respiratory syncytial virus was determined
HeLa [2] = experiment: Minimum cytotoxicity concentration to HeLa cell line was determined
HeLa [3] = experiment: Minimum inhibitory concentration against coxsackie virus B4 was determined
HeLa [4] = experiment: Minimum inhibitory concentration against vesicular stomatitis virus was determined

SMILES	MIC50 (HeLa [1])	MCC (HeLa [2])	MIC50 (HeLa [3])	MIC50 (HeLa [4])
NC1=NC=NC2C1N=CN2[C@H]1CCCC[C@H]1CO (some centres undefined)	3.2 µg/mL (≈ 12.8 µM)	400 µg/mL	> 80 µg/mL	–
NC(=O)c1ncn([C@@H]2O[C@H](CO)[C@@H](O)[C@H]2O)n1 [RIBAVIRIN]	1.92 µg/mL (≈ 7.86 µM)	> 400 µg/mL	48 µg/mL (≈ 197 µM)	16 µg/mL (≈ 65.5 µM)
NC1=NC2C(N=CN2[C@H]2CCCC[C@H]2CO)C(Cl)=N1 (some centres undefined)	8 µg/mL (≈ 28.2 µM)	> 200 µg/mL	120 µg/mL (≈ 423 µM)	> 200 µg/mL
OC[C@@H]1CCCC[C@@H]1N1C=NC2C(Cl)=NC=NC21 (some centres undefined)	> 80 µg/mL	400 µg/mL	> 80 µg/mL	–
